The record followed here is patent US9157077B2, “Aminopyrimidine kinase inhibitors” (Jasco Pharmaceuticals, LLC, priority 2009, dated 2015).

In one data set the test system is LNCaP cells. Put plainly: Cell proliferation study, inhibition of LNCaP cells (MTS). The format is cell-based. The settings on record: Homo sapiens, 72 hours, read-out: Inhibition Rate %. The protocol: Inhibition of LNCaP Cells
(§1) • Cells: LNCaP, ATCC Passage unknown, Mycoplasma free. • Medium: RPMI-1640 Medium (GIBCO Cat#22400121) supplemented with 10% fetal bovine serum (Hyclone Cat#SH30396.03). • Seeding: 3,000 cells/well (100 μL) into 96-well plates, incubated overnight at 37° C. in a humidified 5% CO2 atmosphere. • Treatment: Test compounds were first diluted 333-fold in the medium. Fifty microliters (50 μL) of diluted compounds were added into each well (i.e., another 3-fold dilution). The final concentration of test compounds was 10 μM. The cells were incubated for 72 hours after addition of the test compounds. • MTS: Added 20 μL of MTS solution (Promega Cat #G5430) into each well and incubated for 4 hours. • Calculation: % of inhibition+(AVE zero ctrl−AVE compound)/AVE zero ctrl*100.

Another data set concerns MDA-MB-468 cells. Nature of the data set: Cell proliferation study, inhibition of MDA-MB-468 cells (MTS). The format is cell-based. The settings on record: Homo sapiens, 72 hours, read-out: Inhibition Rate %. The protocol: Inhibition of MDA-MB-468 Cells
as §1, with “MDA-MB-468 cells,” for “LNCaP,”, “2,000” for “3,000”

The subject of a further data set is HCT116 cells. Nature of the data set: Cell proliferation study, inhibition of HCT116 cells (MTS). The format is cell-based. The settings on record: Homo sapiens, 72 hours, read-out: Inhibition Rate %. The protocol:
Inhibition of HCT116 Cells
• Cells: HCT116 cells, ATCC Passage unknown, Mycoplasma free. • Medium: DMEM Medium (GIBCO Cat#11995073) supplemented with 10% fetal bovine serum (Hyclone Cat#SH30396.03). • Seeding: 750 cells/well (100 μL) into 96-well plates, incubated overnight at 37° C. in a humidified 5% CO2 atmosphere. • Treatment: Test compounds were first diluted 333-fold in the medium. Fifty microliters (50 μL) of diluted compounds were added into each well (i.e., another 3-fold dilution). The final concentration of test compounds was 10 μM. The cells were incubated for 72 hours after addition of the test compounds. • MTS: Added 20 μL of MTS solution (Promega Cat #G5430) into each well and incubated for 4 hours. • Measurement: Absorbance at 490 nm using MD Spectramax Plus 384 spectrophotometer. • Calculation: % of inhibition+(AVE zero ctrl−AVE compound)/AVE zero ctrl*100.

Another data set deals with OVCAR-3 cells. Put plainly: Cell proliferation study, inhibition of OVCAR-3 cells (MTS). The format is cell-based. The settings on record: Homo sapiens, 72 hours, read-out: Inhibition Rate %. The protocol:
Inhibition of OVCAR-3 Cells
as §1, with “OVCAR-3 cells,” for “LNCaP,”, “4,” for “unknown,”, “2,000” for “3,000”

A further data set has as its system Jurkat cells. Put plainly: Cell proliferation study, inhibition of Jurkat cells (MTS). The format is cell-based. The settings on record: Homo sapiens, 72 hours, read-out: Inhibition Rate %. The procedure: Inhibition of Jurkat Cells
as §1, with “Jurkat cells,” for “LNCaP,”, “serum(Hyclone” for “serum (Hyclone”, “5,000” for “3,000”

A further data set deals with PC-3 cells. Put plainly: Cell proliferation study, inhibition of PC-3 cells (MTS). The format is cell-based. Conditions: Homo sapiens, 72 hours, read-out: Inhibition Rate %. The protocol:
Inhibition of PC-3 Cells:
as §1, with “PC-3 cells,” for “LNCaP,”, “DMEM” for “RPMI-1640”, “Cat#11995073)” for “Cat#22400121)”

Data set [1] is described as follows: Hepatic microsomal stability, rat. The format is in vitro ADME, rat (Sprague-Dawley). The procedure:
(§2) Hepatic microsomal assays were performed with 4981, 4985, 4991 and 4999 in human and rat (Sprague-Dawley). Protein concentrations of 0.4 (human) and 0.2 mg/mL (rat) with an NADPH regenerating cofactor system (2.6 mM NADP+, 6.6 mM glucose-6-phosphate, 0.8 U/mL glucose-6-phosphate dehydrogenase, and 6.6 mM magnesium chloride) were used. A 100 μM 20% DMSO/80% acetonitrile working stock of each of the compounds was diluted 100 fold resulting in 1 μM compound/1% final organic reaction concentrations. Time points were removed at 0 and 60 minutes. At each time point, 100 μL of the incubation suspension was added to 200 μL of acetonitrile containing internal standard (tolbutamide), followed by centrifugation at 3,220 rcf for 10 minutes. Two hundred (200)μL of the resulting supernatants were removed, dried under nitrogen and reconstituted in 100 μL of 2 mM ammonium acetate, 0.1% formic acid in 50% methanol prior to analysis by LC/MS/MS. Testosterone and dexamethasone were used as reference compounds.

The nature of data set [2]: Hepatic microsomal stability, human. The format is in vitro ADME. The protocol:
as §2

The target of data set [3] is Enzyme (kinases of Table 30) (Homo sapiens, UniProt Q9P1W9). Put plainly: IC50 of Compound (nM) (ATP present at Km of enzyme), Table 30. Conditions: Pim-2(h), ATP present at Km of enzyme; read-out: IC50 of Compound, Pim-2(h). The format is biochemical.
Chain of Enzyme (kinases of Table 30) (Homo sapiens, UniProt Q9P1W9) (Q9P1W9 whole entry): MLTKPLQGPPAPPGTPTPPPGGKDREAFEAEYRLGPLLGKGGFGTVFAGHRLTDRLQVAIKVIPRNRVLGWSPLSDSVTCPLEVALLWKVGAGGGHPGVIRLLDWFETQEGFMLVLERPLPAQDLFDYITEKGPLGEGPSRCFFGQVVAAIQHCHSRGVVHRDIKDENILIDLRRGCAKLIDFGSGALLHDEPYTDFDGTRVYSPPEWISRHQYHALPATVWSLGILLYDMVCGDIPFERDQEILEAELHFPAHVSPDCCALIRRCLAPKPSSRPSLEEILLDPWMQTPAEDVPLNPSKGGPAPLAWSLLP
Data set [4] concerns the target T1, Enzyme (kinases of Table 30) (Homo sapiens, UniProt P78368).
T1 construct: IC50 of Compound, CK1γ2(h); other: CK1γ2(h), ATP present at Km of enzyme
Described as above. Conditions: CK1γ2(h), ATP present at Km of enzyme. The format is biochemical.

The target in data set [5] is Enzyme (kinases of Table 30) (Homo sapiens, UniProt P11309). Described as above. The format is biochemical. The settings on record: Pim-1(h), ATP present at Km of enzyme; read-out: IC50 of Compound, Pim-1(h).
Chain of Enzyme (kinases of Table 30) (Homo sapiens, UniProt P11309) (P11309 whole entry): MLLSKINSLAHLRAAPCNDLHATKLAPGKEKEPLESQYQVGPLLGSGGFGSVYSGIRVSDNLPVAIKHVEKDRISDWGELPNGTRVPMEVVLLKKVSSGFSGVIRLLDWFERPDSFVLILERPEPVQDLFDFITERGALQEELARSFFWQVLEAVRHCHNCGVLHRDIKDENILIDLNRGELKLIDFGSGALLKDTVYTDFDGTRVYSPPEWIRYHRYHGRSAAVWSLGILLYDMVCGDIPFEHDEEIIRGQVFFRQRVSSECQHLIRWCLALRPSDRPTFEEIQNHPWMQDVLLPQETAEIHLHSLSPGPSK
The target of data set [6] is Enzyme (kinases of Table 30) (Homo sapiens, UniProt Q86V86). The data set is described as above. The format is biochemical. The settings on record: Pim-3(h), ATP present at Km of enzyme; read-out: IC50 of Compound, Pim-3(h).
Data set [7] concerns the target T2, Enzyme (kinases of Table 30) (Homo sapiens, UniProt P68400).
T2 construct: IC50 of Compound, CK2(h); other: CK2(h), ATP present at Km of enzyme
The description is as above. Conditions: CK2(h), ATP present at Km of enzyme. The format is biochemical.

The conditions of data set [8]: PAMPA, 5 h, 10 μM, pH 7.4. (In PAMPA a lipid-coated filter parts donor from acceptor wells.)
Protocol: The target concentration in the assay was 10 μM, prepared by diluting (1000-fold) the 10 mM stock solutions in DMSO into PBS, pH 7.4. The final DMSO concentration was 0.1%. The 10 μM solutions were added, 300 μL, to wells in the donor plate. The receiver plate, which contained 200 μL of PBS, pH 7.4 per well, was placed in the donor plate and the assembly was incubated for 5 hours at ambient temperature. At the end of the incubation period the plates were separated and the compound concentrations in each solution were determined by LC/MS/MS. The assay was performed in triplicate.
Where: • C0 is the initial concentration in the donor well (μM) • CD(t) is the concentration in the donor well after incubation (μM) • CA(t) is the concentration in the acceptor well after incubation (μM) • VD is the volume in the donor well (0.3 mL) • VA is the volume in the acceptor well (0.2 mL) • CE is (CD(t)VD+CA(t)VA)/(VD+VA) • A is the filter area (0.3 cm2) • t is the incubation time (18,000 s).

T1 sequence (P78368 whole entry): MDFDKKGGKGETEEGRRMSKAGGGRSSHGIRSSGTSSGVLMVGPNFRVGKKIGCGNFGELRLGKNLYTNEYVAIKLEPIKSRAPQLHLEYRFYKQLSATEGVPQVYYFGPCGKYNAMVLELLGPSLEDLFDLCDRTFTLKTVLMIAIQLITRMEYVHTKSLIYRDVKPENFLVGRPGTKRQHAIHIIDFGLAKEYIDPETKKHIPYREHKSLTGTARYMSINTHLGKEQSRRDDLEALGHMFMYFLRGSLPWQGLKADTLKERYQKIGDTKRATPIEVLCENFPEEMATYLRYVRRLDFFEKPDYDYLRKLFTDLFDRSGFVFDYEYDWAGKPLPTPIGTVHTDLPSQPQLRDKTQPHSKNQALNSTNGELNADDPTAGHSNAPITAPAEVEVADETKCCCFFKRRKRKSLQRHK
T2 sequence (P68400 whole entry): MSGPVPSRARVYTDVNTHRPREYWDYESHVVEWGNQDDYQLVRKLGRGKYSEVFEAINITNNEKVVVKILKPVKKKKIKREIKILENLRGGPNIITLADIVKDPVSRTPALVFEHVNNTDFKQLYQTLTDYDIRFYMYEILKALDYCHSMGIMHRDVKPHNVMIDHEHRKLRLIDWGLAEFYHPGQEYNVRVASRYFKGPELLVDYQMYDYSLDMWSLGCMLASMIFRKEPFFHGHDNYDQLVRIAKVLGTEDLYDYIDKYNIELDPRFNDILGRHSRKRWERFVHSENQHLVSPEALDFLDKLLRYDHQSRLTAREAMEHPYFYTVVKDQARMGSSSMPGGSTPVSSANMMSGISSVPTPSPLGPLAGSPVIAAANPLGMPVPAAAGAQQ

For the molecule `Nc1ccn([C@@H]2O[C@H](CO)[C@@H](O)C2(F)F)c(=O)n1` [Gemcitabine, gemcitabine], the inhibition (usually the relative decrease from the control value, in per cent) at 1.2 µM with LNCaP cells (positive control 1.2 μM) is 14.5%; in the data set with MDA-MB-468 cells (positive control 1.2 μM), 16.4%; with HCT116 cells (HCT-116, positive control 1.2 μM), 50.1%; in the data set on OVCAR-3 cells (positive control 1.2 μM), 18.2%; in the data set on Jurkat cells (positive control 1.2 μM) it was 17.4%; in the data set on PC-3 cells (positive control 1.2 μM), 6.5%. Also, the inhibition at 3.7 µM came to 60.9% in the data set on LNCaP cells (positive control 3.7 μM); 31.2% in the data set on MDA-MB-468 cells (positive control 3.7 μM); 79.3% with HCT116 cells (HCT-116, positive control 3.7 μM); 25% with OVCAR-3 cells (positive control 3.7 μM); 63.9% in the data set on Jurkat cells (positive control 3.7 μM); 6.7% in the data set with PC-3 cells (positive control 3.7 μM). For the same molecule, the inhibition at 11.1 µM in the data set on LNCaP cells (positive control 11.1 μM) amounted to 90.2%; with MDA-MB-468 cells (positive control 11.1 μM) it was 80.7%; in the data set with HCT116 cells (HCT-116, positive control 11.1 μM) it was 85.6%; in the data set on OVCAR-3 cells (positive control 11.1 μM) it was 31.5%; in the data set with Jurkat cells (positive control 11.1 μM), 84.7%; in the data set on PC-3 cells (positive control 11.1 μM), 20.9%. Moreover, the inhibition at 33.3 µM was determined as 92.9% in the data set with LNCaP cells (positive control 33.3 μM); 91.7% in the data set with MDA-MB-468 cells (positive control 33.3 μM); 85.6% in the data set with HCT116 cells (HCT-116, positive control 33.3 μM); 40.8% in the data set with OVCAR-3 cells (positive control 33.3 μM); 105% in the data set on Jurkat cells (positive control 33.3 μM); 47.4% in the data set with PC-3 cells (positive control 33.3 μM). Also, the inhibition at 100 µM with LNCaP cells (positive control 100 μM) was 90.7%; with MDA-MB-468 cells (positive control 100 μM), 88.8%; with HCT116 cells (HCT-116, positive control 100 μM), 85.4%; with OVCAR-3 cells (positive control 100 μM) it was 85.1%; in the data set with Jurkat cells (positive control 100 μM) it was 106%; in the data set on PC-3 cells (positive control 100 μM) it was 55.7%. For the same molecule, the inhibition at 300 µM with LNCaP cells (positive control 300 μM) stood at 90.1%; in the data set on MDA-MB-468 cells (positive control 300 μM), 94.9%; in the data set with HCT116 cells (HCT-116, positive control 300 μM), 87.6%; in the data set with OVCAR-3 cells (positive control 300 μM) it was 87%; with Jurkat cells (positive control 300 μM), 104%; with PC-3 cells (positive control 300 μM) it was 79.5%.
Regarding `C[C@]12CC[C@H]3[C@@H](CCC4=CC(=O)CC[C@@]43C)[C@@H]1CC[C@@H]2O` [Testosterone], the “% remaining after incubation, Rat Microsomes” value in data set [1] (1 μM compound, 0.2 mg/mL protein, NADPH regenerating system, 60 minutes) came to 0.6%. For the same molecule, in data set [2] (1 μM compound, 0.4 mg/mL protein, NADPH regenerating system, 60 minutes), the “% remaining after incubation, Human Microsomes” value came out at 42%.
On to `COc1cccc2ccc(CNCC3CCN(c4nccc(/C=C5\SC(=O)NC5=O)n4)CC3)nc12` [compound 189], for which the IC50 (as a rule, the concentration that inhibits the measured activity by half) in [3] was found to be 9 nM; in data set [4], 164 nM; in data set [5], 4 nM; in [6], 4 nM; in [7], 364 nM.
Take `Nc1cccc2c1CCN(c1nccc(/C=C3\SC(=O)NC3=O)n1)C2` [compound 120]: the IC50 in data set [3] is 225 nM; in data set [4], 676 nM; in data set [5] it was 170 nM; in data set [6], 271 nM; in [7] it was 214 nM.
Turning to `O=C1NC(=O)/C(=C/c2ccnc(N3CCC(c4c[nH]c5ccccc45)CC3)n2)S1` [compound 94], in data set [4], the IC50 worked out at 38 nM.
For `C[C@@H]1C[C@H]2[C@@H]3CCC4=CC(=O)C=C[C@]4(C)[C@@]3(F)[C@@H](O)C[C@]2(C)[C@@]1(O)C(=O)CO` [Dexamethasone], in data set [8], the “Mass Retention R” value came to 9%. The “% remaining after incubation, Rat Microsomes” value in data set [1] (Sprague-Dawley, rat, microsomes, 1 h, 1 μM) is listed as 91%. In addition, in [2] (human, microsomes, 1 h, 1 μM), the “% remaining after incubation, Human Microsomes” value came to 85%.
Molecule `O=C1NC(=O)/C(=C/c2ccnc(N3CCC(c4nc(-c5ccncc5)no4)CC3)n2)S1` [compound 86] had an IC50 in data set [4] of 86 nM.
